What was measured:
[1] = Urinary recovery of active ingredient over 0-24 hours (HPLC); set-up: species or system human; conditions: in vivo
Description: After measuring volume and pH, aliquots were stored below -15° C. pending assay for the active ingredient by a validated HPLC procedure.
The resulting linear regression was used to determine urine concentrations of the active ingredient in each sample. Recovered amounts of the active ingredient were then calculated from the urine volume for the collection period of each sample.

[2] = pH 6.0-7.0; cited from earlier work

| Structure (SMILES) | Excretion [1] | Metabolism [1] | Solubility [2] |
| --- | --- | --- | --- |
| Cc1[nH]c(=O)c(C#N)cc1-c1ccncc1 [1,2-dihydro-3-cyano-6-methyl-5-(4-pyridinyl)-2(1H)-pyridinone] | excreted in the urine | only slightly metabolized |  |
| OCCN(CCO)c1nc(N2CCCCC2)c2nc(N(CCO)CCO)nc(N3CCCCC3)c2n1 [dipyridamole] |  |  | insoluble |
